According to PMC11927696, “Synthetic mycolates derivatives to decipher protein mycoloylation, a unique post-translational modification in bacteria” (The Journal of Biological Chemistry, 2025):

What was measured:
[1] = target: T1, MytC (MytChis) (Corynebacterium glutamicum, UniProt Q8NTG4); assay: X-ray crystallography, […] Å; format: binding
T1 construct: gene Cgl0343; residues 30-363 seen in crystal

[2] = target: T1, MytC (MytChis); assay: PorA mycoloylation, MALDI-TOF MS; format: biochemical; settings: PorA acceptor; in combination with TDM/TMM mix, pH 8.0, 37 °C, 3 h
[3] = target: T2, MytA (MytAhis) (Corynebacterium glutamicum, UniProt P0C1D6); assay: trehalose acylation (trehalose dipalmitate formation), MALDI-TOF MS; format: biochemical; settings: 1 mM, acts as donor and acceptor, 5 μM MytA, pH 8.0, 37 °C, 3 h
T2 construct: gene csp1
T2 sequence (P0C1D6 44-657): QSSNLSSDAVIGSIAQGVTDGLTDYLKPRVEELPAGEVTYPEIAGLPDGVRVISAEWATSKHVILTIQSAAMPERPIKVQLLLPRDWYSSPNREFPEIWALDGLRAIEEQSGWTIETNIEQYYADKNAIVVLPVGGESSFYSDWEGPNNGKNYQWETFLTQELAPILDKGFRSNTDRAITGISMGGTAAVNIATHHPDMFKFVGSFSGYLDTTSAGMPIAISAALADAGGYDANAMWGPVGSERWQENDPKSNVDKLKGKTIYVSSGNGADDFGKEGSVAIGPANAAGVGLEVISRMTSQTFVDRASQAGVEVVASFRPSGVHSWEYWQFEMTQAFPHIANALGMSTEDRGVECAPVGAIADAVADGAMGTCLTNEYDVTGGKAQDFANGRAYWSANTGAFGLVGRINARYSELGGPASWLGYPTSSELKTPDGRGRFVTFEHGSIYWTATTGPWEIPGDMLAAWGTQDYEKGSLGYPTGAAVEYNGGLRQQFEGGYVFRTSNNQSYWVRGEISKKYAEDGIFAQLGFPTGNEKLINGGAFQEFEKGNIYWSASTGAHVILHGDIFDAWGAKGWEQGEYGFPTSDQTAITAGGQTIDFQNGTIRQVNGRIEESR

[4] = target: T2, MytA (MytAhis); assay: trehalose mycoloylation (TDM formation), TLC and MALDI-TOF MS; format: biochemical; settings: 1 mM, acts as donor and acceptor, 5 μM MytA, pH 8.0, 37 °C, 3 h

T1 sequence (Q8NTG4 entry or part of it): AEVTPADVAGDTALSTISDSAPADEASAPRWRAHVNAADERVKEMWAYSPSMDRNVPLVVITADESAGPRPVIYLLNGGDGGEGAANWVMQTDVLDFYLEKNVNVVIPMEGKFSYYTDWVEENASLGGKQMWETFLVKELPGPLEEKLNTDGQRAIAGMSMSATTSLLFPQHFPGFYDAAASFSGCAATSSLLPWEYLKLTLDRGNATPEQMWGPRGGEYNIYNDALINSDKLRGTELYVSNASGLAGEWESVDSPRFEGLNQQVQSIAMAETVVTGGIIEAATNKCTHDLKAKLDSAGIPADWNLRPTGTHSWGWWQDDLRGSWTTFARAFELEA

In the case of `CCCCC[C@@H](O)[C@@H](CCCCC)C(=O)OC[C@H]1O[C@H](O[C@H]2O[C@H](CO)[C@@H](O)[C@H](O)[C@H]2O)[C@H](O)[C@@H](O)[C@@H]1O` [compound 2, TMM-C13:0], the “X-ray crystallography, 2.69 Å” value ([1]; covalent, mycoloyl ester on catalytic S189, co-crystallised, pH 7.1) is reported as “S189 Oγ atom forms an ester bond with the carbonyl of the analog”.
For `CCCCCCCCCCCCCCC[C@@H](O)CC(=O)OC[C@H]1O[C@H](O[C@H]2O[C@H](CO)[C@@H](O)[C@H](O)[C@H]2O)[C@H](O)[C@@H](O)[C@@H]1O` [compound 4, analog 4], the “PorA mycoloylation, MALDI-TOF MS” value [2] was “is perfectly used as a substrate to acylate PorA”.
In the case of `CCCCCCCCCCCCCCCC(=O)OC[C@H]1O[C@H](O[C@H]2O[C@H](CO)[C@@H](O)[C@H](O)[C@H]2O)[C@H](O)[C@@H](O)[C@@H]1O` [compound 6, TMP], the “trehalose acylation (trehalose dipalmitate formation), MALDI-TOF MS” value [3] is reported as “both compounds are efficient substrates of MytA”.
In the case of `CCCCCCCCCCCCCCC[C@@H](O)[C@@H](CCCCCCCCCCCCCC)C(=O)OC[C@H]1O[C@H](O[C@H]2O[C@H](CO)[C@@H](O)[C@H](O)[C@H]2O)[C@H](O)[C@@H](O)[C@@H]1O` [synthetic TMM-C32:0], the “trehalose mycoloylation (TDM formation), TLC and MALDI-TOF MS” value [4] is reported as “a small amount of TDM is detected on TLC”.
For `OC[C@H]1O[C@H](O[C@H]2O[C@H](CO)[C@@H](O)[C@H](O)[C@H]2O)[C@H](O)[C@@H](O)[C@@H]1O` [trehalose], the “X-ray crystallography, 2.69 Å” value ([1]; second site, protein surface near active site groove, contacts E225 and D232 of helix α8, crystal with TMM-C13:0) was “A trehalose moiety was identified on the surface of MytC”.
